From patent US10640524B2, “Prototype systems of theranostic biomarkers for in vivo molecular management of cancer” (EPOS-IASIS RESEARCH AND DEVELOPMENT, LTD, priority 2015, dated 2020)

Key:
[1] = test system: colon cancer cells (SW480); assay: Antiproliferative effect of A1F-D1F on colon cancer cells; type: cell-based; conditions: for effect on cell viability with respect to the control (no drug): SW480, FIG. 3; for cell viability with respect to the control: human, 24 h
Description: The antiproliferative effect of the following compounds A1F, B1F, C1F and D1F were tested on colon cancer cells (SW480).

[2] = test system: LoVo cells; assay: MTT colorimetric assay of antiproliferative efficacy; type: cell-based; conditions: FIG. 4
[3] = test system: SW620 cells; assay: Label-free temporal quantitative pharmacoproteomics; type: cell-based; conditions: 0.04 mM
Description: The following experiment was performed to uncover new biomarkers of therapeutic response to the anticancer efficacy of the natural product based theranostic systems of the present invention.
In this experiment, SW620 cells were seeded in T75 flasks in DMEM, 10% FBS and 1% Penicillin/Streptomycin (all from Gibco). The cells were allowed to attach overnight. The following day the medium was removed and fresh medium containing 0.04 mM of either γT (γ-tocotrienol) or DCE-γT (diluted in absolute ethanol; final concentration of ethanol in the medium was 0.1% v/v). For control untreated cells, equal amount of fresh medium (containing ethanol at 0.1% v/v final concentration) was added.
SW620 cells were harvested after 24, 36 and 48 hrs of incubation with γT or DCE-γT. Briefly, the medium was removed and the cells were rinsed three times with PBS (without Ca, Mg) (Gibco). Fresh PBS was added and the cells were scraped off the flasks and collected in tubes. Collected cells were centrifuged at 1000 rpm (165 g) for 3 min and the supernatant was removed. The cell pellet was re-suspended in PBS and the centrifugation step was repeated. The supernatant was removed and the cells in minimal residual PBS were snap-freezed in liquid nitrogen. Once frozen the cells were stored in −80° C. until the proteomics analysis.
In terms of data analysis, a threshold of relative protein abundance equal or greater than 1.5-fold increase or decrease was set.

[4] = target: T1, EGFR membrane tyrosine kinase receptor (Homo sapiens, UniProt P00533); assay: FRET between EGFR-Luc and fluorescent ester in transfected cells; type: cell-based; conditions: EGFR negative colon cancer cells transfected with EGFR-Luc plasmid; FIG. 5
T1 construct: expressed in transfected cells
Description: The fluorescent esters of the natural products disclosed herein can also be used as molecular probes for deciphering the interaction between the natural product and potential biomarkers in cancer cells. EGFR negative colon cancer cells were transiently transfected with a rationally designed EGFR-Luc plasmid and incubated with the DCE-γ-Tocotrienol ester. Bioluminescence of the Luciferase (donor) was assessed against the fluorescence signal of either the DCE-γ-Tocotrienol ester or the hydrolysis product (acceptor).

[5] = In vivo biodistribution by quantitative fluorescence imaging; design: species or system mouse
Description: A study of the in vivo biodistribution of a dicarboxylic ester of γ-Tocotrienol (DCE-γT) (enabled by customized histopathologic processing and quantitative fluorescence imaging) was performed. The study disclosed liver uptake as a function of time defining fluorescent chromanol esters as valued molecular probes. The structure of the dicarboxylic ester of γ-Tocotrienol (DCE-γT) is as follows:
Fluorescent signals of the DCE-γT and its free fluorescent metabolite, corresponding to the fluorescent ligand, peaked at 30 min and 3 hrs respectively, which was in agreement with in vitro findings. Colon uptake as a function of time confirms the mitochondrial predilection of the esterified chromanols and claims a new generation of optically active mitocans.

[6] = test system: EGFR-Luc and Grb2-GFP interaction; assay: BRET of the interaction between EGFR-Luc and Grb2-GFP; type: cell-based

With C=CC(=O)Nc1cc2c(Nc3ccc(Br)cc3)ncnc2cc1NC(=O)CCl [A1F] the “effect on cell viability with respect to the control (no drug)” value (“effect on cell viability … (no drug)” below) [1] was “reduce the viability of the cells” and the “cell viability with respect to the control” value [1] was 20%.

In the case of C=CC(=O)Nc1cc2c(Nc3ccc(C(C)C)cc3)ncnc2cc1NC(=O)CCl [B1F], the “effect on cell viability … (no drug)” value [1] is reported as “reduce the viability of the cells”.

For C=CC(=O)Nc1cc2c(NCc3cccc4ccccc34)ncnc2cc1NC(=O)CCl [C1F], the “effect on cell viability … (no drug)” value [1] was “reduce the viability of the cells” and the “cell viability with respect to the control” value [1] was 20%.

With C=CC(=O)Nc1cc2c(Nc3ccc(C(C)(C)C)cc3)ncnc2cc1NC(=O)CCl [D1F] the “effect on cell viability … (no drug)” value [1] was “reduce the viability of the cells” and the “cell viability with respect to the control” value [1] was 20%.

In the case of CC1(C)C(/C=C/C=C/C=C/C=C2\N(CCCCS(=O)(=O)[O-])c3ccc4ccccc4c3C2(C)C)=[N+](CCCCS(=O)(=O)[O-])c2ccc3ccccc3c21.[Na+] [free cyanine dye, indocyanine green, reference compound], the antiproliferative efficacy [2] is reported as “did not exhibit any antiproliferative effects”.

For CCN1\C(=C/C=C/C=C/C=C/C2=[N+](CCCCCC(=O)NCC(=O)Nc3cccc(Nc4ncnc5ccc(NC(=O)COC)cc45)c3)c3ccc4ccccc4c3C2(C)C)C(C)(C)c2c1ccc1ccccc21.[Br-] [theranostic system], the antiproliferative efficacy [2] was “significantly higher antiproliferative efficacy than free anilinoquinazoline”.

For CC(C)=CCC/C(C)=C/CC/C(C)=C/CC[C@]1(C)CCc2cc(O)c(C)c(C)c2O1 [γT, γ-tocotrienol, reference compound], the “decrease in protein level of histone H2B types” value ([3]; versus untreated control) was 1.8 fold, the “decrease in protein level of histone H3 types” value ([3]; versus untreated control) was “at least 3.7 fold” and the “decrease in protein level of hnRNPs” value ([3]; versus untreated control) was “at least 2 fold”. The “decrease in protein level of snRNPs” value ([3]; versus untreated control) was 1.8 fold, the “increase in histone H2A.Z” value ([3]; versus untreated control) was 24 fold and the “increase in level of RNA helicases” value ([3]; versus untreated control) was ≥ 1.9 fold. For the same molecule, the “increase in level of certain snRNP components” value ([3]; versus untreated control) was ≥ 3 fold and the “increase in level of transcription regulators/co-factors” value ([3]; versus untreated control) was ≥ 2 fold.

With “dicarboxylic ester of γ-Tocotrienol [DCE-γT]” the FRET signal [4] was “amplified FRET signal”, the “time of peak fluorescent signal” value ([5]; in vivo biodistribution, liver uptake as a function of time) was 30 min and the “blood brain barrier passage” value ([5]; uptake by mouse brain parenchyma cells) was “able to pass the blood brain barrier”. The “activation within the EGFR axis” value [6] was “neither the ester nor the hydrolysis products elicit any unwanted activation”, the “number of proteins whose expression was elicited” value (“number” for short) ([3]; 24 hrs) was 37 and the “number” value ([3]; 36 hrs) was 30. The “number” value ([3]; 48 hrs) was 29, the “decrease in DNA repair factors” value ([3]; versus untreated control) was 2 fold and the “decrease in protein level of histone H3 types” value ([3]; versus untreated control) was “at least 6 fold”. The “decrease in protein level of snRNPs” value ([3]; versus untreated control) was 2 fold, the “increase in histone H2A.Z” value ([3]; versus untreated control) was 23 fold and the “increase in histone H3 forms” value ([3]; versus untreated control) was ≥ 1.8 fold.
